Data published in patent US6998395B2, “Administration of estradiol metabolites for the treatment or prevention of obesity, metabolic syndrome, diabetes, and vascular and renal disorders” (University of Pittsburg,, priority 2001, dated 2006).
“Also recorded” adds a separate entry of the source.

Legend:
Type in all cases: in vivo, rat
male ZSF1 rats = assay: Treatment of male ZSF1 rats for 24 weeks with 2-hydroxyestradiol or 2-methoxyestradiol; conditions: 10 ug/kg/hr, 28 weeks, versus control animals
female ZSF1 rats = assay: Treatment of ovarectomized female ZSF1 rats for 24 weeks with 2-hydroxyestradiol; conditions: 10 ug/kg/hr
Procedure: Male ZSF1 rats were treated continuously for 24 weeks with polyethylene glycol 400 (PEG 400) (Sigma, St. Louis, Mo.) or one of three doses of 2-hydroxyestradiol or 2-methoxyestradiol (Steraloids, Inc. Newport, R.I.) dissolved in PEG 400. The three doses were 1 ug/kg/hr, 3 ug/kg/hr or 10 ug/kg/hr. Female ZSF1 rats were treated continuously for 24 weeks with either PEG 400 or 10 ug/kg/hr of 2-hydroxyestradiol. Female ZSF1 rats were ovarectomized at 11 weeks of age. For all animals, both male and female, treatments with estradiol metabolites were begun at approximately 13 weeks of age. […]
Metabolic cages (Nalgene, Rochester, N.Y.) were used in this study. […] The first 24-hour period was considered an acclimation period, while food and fluid intake and urine volume were measured during the second 24-hour period. […] The blood was further analyzed to assess creatinine clearance, fractional sodium excretion, fractional potassium excretion and fractional albumin excretion. In addition, the following criteria were also assessed while the animals were in the metabolic cages: body weight, feed intake, water intake, urine output, urinary protein, urinary albumin, urinary glucose, urinary sodium and urinary potassium. […]
Food intake was measured by filling the food containers with standard powder laboratory food up to a total weight of 250 grams. […]

male obese ZSF1 rats = assay: Treatment of male obese ZSF1 rats for 26 weeks with 2-hydroxyestradiol: body weight, food intake, metabolic cage and plasma parameters
Excerpt: Twenty 12-week-old male obese ZSF1 rats (Genetic Models Inc., Indianapolis, Ind.) were used. Obese ZSF1 rats were developed by crossing lean female Zucker Diabetic Fatty rats (ZDF +/fa) and lean male Spontaneously Hypertensive Heart Failure rats (SHHF/Mcc-fa^cp, +/cp). As recently described by Tofovic, S. P., et al., Renal Failure 22: 387 (2000) the disclosure of which is incorporated herein by reference, compared with several different rat strains including Wistar-Kyoto normotensive rats, spontaneously hypertensive rats and obese SHHF/Mcc-fa^cp rats, obese ZSF1 rats have the metabolic syndrome (i.e., hypertension, diabetes and hyperlipidemia), left ventricular dysfunction, and develop nephropathy as characterized by massive proteinuria, abnormal renal histopathology (glomerulosclerosis and severe tubulointerstitial and vascular changes) and reduced glomerular filtration rate. Thus, this rat strain develops obesity, the metabolic syndrome and the end-organ sequelae associated with the metabolic syndrome.
At baseline, animals were placed in metabolic cages and food intake, water intake, urine output and urinary excretion of proteins (bicinchoninic acid method) and glucose (Infinity™ Glucose Reagent, Sigma Diagnostics, St Louis, Mo.) were determined. Next, osmotic mini pumps infusing either vehicle (polyethylene glycol 400, 2.5 ul/hour) or 2-hydroxyestradiol (10 ug/kg/hour) were implanted subcutaneously (random assignment). Minipumps were replaced every 33 days. Metabolic cage studies were repeated 12 and 24 weeks after initiation of treatments. After 9 and 25 weeks of treatment, animals were fasted overnight, and blood samples (tail vein) for measurement of cholesterol were taken. Plasma samples were analyzed in duplicates for cholesterol levels (Sigma Diagnostics, St. Louis, Mo.). After 26 weeks of treatment, animals were fasted overnight, an oral glucose tolerance test was conducted and total glycated hemoglobin levels were determined (Sigma Diagnostics). Plasma glucose levels were measured with the Precision Q.I.D. Blood Glucose Test Strips kit (Medisense, Inc., Bedford, Mass.).
All values refer to means±SEM for 9 to 10 animals in each group. Statistical significance was calculated using either an unpaired Student's t-test or a 2-factor analysis of variance (repeated measures) followed by a Fisher's Least Significance Difference test if appropriate. The criterion of significance was p<0.05.

[1] = 10 ug/kg/hour s.c., 12 weeks of treatment
[2] = 10 ug/kg/hour s.c., 24 weeks of treatment
[3] = Table 1, after approximately 6 months of treatment

## C[C@]12CC[C@@H]3c4cc(O)c(O)cc4CC[C@H]3[C@@H]1CC[C@@H]2O [2-hydroxyestradiol, estra-1,3,5 (10)-triene-2,3,1 7-triol (17β)]
Male ZSF1 rats
  Glycated hemoglobin (HbA1c) (FIG. 14): lower
Female ZSF1 rats; 20 weeks, versus control animals
  Leptin levels (FIG. 11): reduced
Female ZSF1 rats; 24 weeks, versus control groups
  Blood urea nitrogen (FIG. 10): lower
Male obese ZSF1 rats; 10 ug/kg/hour s.c. osmotic minipump, 12 weeks of treatment, mean±SEM
  Body weight: 545±13 grams
Male obese ZSF1 rats; 10 ug/kg/hour s.c. osmotic minipump, 26 weeks of treatment, mean±SEM
  Body weight: 571±13 grams
Male obese ZSF1 rats; 10 ug/kg/hour s.c., 9 weeks of treatment, fasted overnight
  Hypercholesterolemia (plasma cholesterol): 151±9 mg cholesterol/100 ml
Male obese ZSF1 rats; [1]
  Food intake: 26.4±1.3 grams/day
  Glucosuria: 0.2±0.2 grams glucose/day
  Polydipsia: 40.1±4.0 mls of water consumed/day
  Polyuria: 23.6±2.4 mls of urine/day
Male obese ZSF1 rats; [2]
  Food intake: 36.6±0.9 grams/day
  Glucosuria: 1.7±0.5 grams glucose/day
  Polydipsia: 67.4±4.5 mls of water consumed
  Polyuria: 45.6±3.8 mls of urine/day
Male obese ZSF1 rats; 10 ug/kg/hour s.c., 25 weeks of treatment, fasted overnight
  Hypercholesterolemia (plasma cholesterol): 247±28 mg cholesterol/100 ml
Male obese ZSF1 rats; 10 ug/kg/hour s.c., 26 weeks into the study
  Glycated hemoglobin: 3.8±0.7%
Male obese ZSF1 rats; 10 ug/kg/hour s.c., 26 weeks of treatment, fasted overnight
  Oral glucose tolerance test: plasma glucose 2 hours after an oral dose of 2 grams of glucose per kg body weight: 265±13 mg/100 ml
Male obese ZSF1 rats; 10 ug/kg/hour s.c., baseline, 12 and 24 weeks, versus vehicle
  Progression of proteinuria (urinary protein excretion, FIG. 1): significant (p<0.001) effect of time and treatment; also recorded: attenuated the progression of proteinuria
Male obese ZSF1 rats; [3]
  Food intake: 36.6 ± 0.9 grams
  Glycated hemoglobin: 3.8 ± 0.7%
  Plasma Cholesterol: 247 ± 28 mg/100 ml
  Plasma Glucose 2 Hours After Oral Glucose Load of 2 g/kg: 265 ± 13 mg/100 ml
  Urinary Glucose Excretion: 1.7 ± 0.5 grams/day
  Urinary Protein Excretion: 333 ± 21 mg/day
  Urine Volume: 45.6 ± 3.8 mL/day
  Water Intake: 67.4 ± 4.5 mL/day
Male obese ZSF1 rats; Table 1, after approximately 6 months of treatment, mean ± SEM
  Body weight: 571 ± 11 grams
